Assay results as given in patent US4656166A, “Antibiotic compounds derived from cephalosporins, process for their production and pharmaceutical compositions” (Sanofi, priority 1983, dated 1987).
Values after ≈ are worked out from the molar mass of the structure shown. Like-named read-outs stand apart in the source and are kept apart here.

Experiments:
Format in all cases: cell-based
Escherichia coli SOL 90 = assay: MIC, in vitro dilution method, Escherichia coli SOL 90 (Table III); conditions: SOL90
Summary of the method: (§1)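 Compounds are serially diluted in vitro and tested for bacteriostatic effect on each Gram-negative strain; the lowest inhibiting concentration is recorded as MIC (μg/ml).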

Citrobacter RL 49 = assay: MIC, in vitro dilution method, Citrobacter RL 49 (Table III); conditions: RL49
Summary of the method: as §1

[1] = test system: Proteus vulgaris GN 76/C.1/3; assay: MIC on strain not producing beta-lactamase, Proteus vulgaris GN 76/C.1/3 (Table IV); conditions: GN76, not producing beta-lactamases
Method: (§2) To evaluate the stability of these products towards beta-lactamases, their MIC was determined on isogenic strains producing and not producing beta-lactamases.
(§3) The results are expressed in μg/ml in Table IV.

[2] = test system: Proteus vulgaris RL 99 bis; assay: MIC, in vitro dilution method, Proteus vulgaris RL 99 bis (Table III); conditions: RL99BIS
Summary of the method: as §1

[3] = test system: Serrtia liquefaciens SL 1326 S; assay: MIC on strain not producing beta-lactamase, Serratia liquefaciens SL 1326 S (Table IV); conditions: SL1326S, not producing beta-lactamases
Method: as §2, §3

Serratia RL 72 = assay: MIC, in vitro dilution method, Serratia RL 72 (Table III); conditions: RL72
Summary of the method: as §1

[4] = test system: Proteus vulgaris GN 76/C.1; assay: MIC on beta-lactamase producing strain Proteus vulgaris GN 76/C.1 (Table IV); conditions: GN76
Method: as §2, §3

Klebsiella RO 30 = assay: MIC, in vitro dilution method, Klebsiella RO 30 (Table III); conditions: RO30
Summary of the method: as §1

Pseudomonas RL 112 = assay: MIC, in vitro dilution method, Pseudomonas RL 112 (Table III); conditions: RL112
Summary of the method: as §1

Enterobacter RO 154 = assay: MIC, in vitro dilution method, Enterobacter RO 154 (Table III); conditions: RO154
Summary of the method: as §1

[5] = test system: Serrtia liquefaciens SL/326 A; assay: MIC on beta-lactamase producing strain Serratia liquefaciens SL/326 A (Table IV)
Method: as §2, §3

Escherichia coli 255 = assay: MIC on beta-lactamase producing strain Escherichia coli 255 (Table IV); conditions: Escherichia coli 255, producing beta-lactamases; read-out: MIC
Method: as §2, §3

Escherichia coli 255/L.7 = assay: MIC on strain not producing beta-lactamase, Escherichia coli 255/L.7 (Table IV); conditions: Escherichia coli 255/L.7 *, not producing beta-lactamases; read-out: MIC
Method: as §2, §3

[6] = Escherichia coli SOL 90, dilution method, read-out: MIC
[7] = Citrobacter RL 49, dilution method, read-out: MIC
[8] = Proteus vulgaris RL 99 bis, dilution method, read-out: MIC
[9] = Proteus vulgaris GN 76/C.1, producing beta-lactamases, read-out: MIC
[10] = Klebsiella RO 30, dilution method, read-out: MIC
[11] = Enterobacter RO 154, dilution method, read-out: MIC

| Compound | MIC (Escherichia coli SOL 90; [6]) [µg/mL] | MIC (Citrobacter RL 49; [7]) [µg/mL] | MIC [1] [µg/mL] | MIC [2, 8] [µg/mL] | MIC [3] [µg/mL] | MIC (Serratia RL 72) [µg/mL] | MIC [4, 9] [µg/mL] | MIC (Klebsiella RO 30; [10]) [µg/mL] | MIC (Pseudomonas RL 112) [µg/mL] | MIC (Enterobacter RO 154; [11]) [µg/mL] | MIC [5] [µg/mL] | MIC (Escherichia coli 255) [µg/mL] | MIC (Escherichia coli 255/L.7) [µg/mL] | MIC (Escherichia coli SOL 90; Escherichia coli) [µg/mL] | MIC (Citrobacter RL 49; Citrobacter) [µg/mL] | MIC ([2]; Proteus vulgaris) [µg/mL] | MIC ([4]; Proteus vulgaris) [µg/mL] | MIC (Klebsiella RO 30; Klebsiella) [µg/mL] | MIC (Enterobacter RO 154; Enterobacter) [µg/mL] |
| --- | --- | --- | --- | --- | --- | --- | --- | --- | --- | --- | --- | --- | --- | --- | --- | --- | --- | --- | --- |
| CC(C)(O/N=C(\C(=O)NC1C(=O)N2C(C(=O)O)=C(COC(=O)CCCCN)C[S+]([O-])C12)c1csc(N)n1)C(=O)O (stereo not shown) [41 967] | 0.25 (≈ 0.416 µM) | 0.5 (≈ 0.832 µM) | ≤ 0.12 | ≤ 0.12 | ≤ 0.12 | 0.5 (≈ 0.832 µM) | ≤ 0.12 | 0.25 (≈ 0.416 µM) | 4 (≈ 6.66 µM) | 2 (≈ 3.33 µM) | 0.25 (≈ 0.416 µM) | ≤ 0.12 | ≤ 0.12 |  |  |  |  |  |  |
| CC(C)(ON=C(C(=O)NC1C(=O)N2C(C(=O)O)=C(CSC(=O)C3CCC(CN)CC3)C[S+]([O-])C12)c1csc(N)n1)C(=O)O (stereo not shown) [compound 42118] | 1 (≈ 1.52 µM) | 0.5 (≈ 0.761 µM) |  | 0.25 (≈ 0.381 µM) | 0.12 (≈ 0.183 µM) | 4 (≈ 6.09 µM) | 0.5 (≈ 0.761 µM) | 0.5 (≈ 0.761 µM) | 8 (≈ 12.2 µM) | 16 (≈ 24.4 µM) | 0.25 (≈ 0.381 µM) | 0.5 (≈ 0.761 µM) | 0.25 (≈ 0.381 µM) |  |  |  |  |  |  |
| CC(C)(O/N=C(\C(=O)NC1C(=O)N2C(C(=O)O)=C(COC(=O)c3cccc(CN)c3)C[S+]([O-])C12)c1csc(N)n1)C(=O)O (stereo not shown) [42 320] |  |  | 0.125 (≈ 0.197 µM) |  | ≤ 0.0312 | 0.5 (≈ 0.788 µM) |  |  | 4 (≈ 6.3 µM) |  | 0.125 (≈ 0.197 µM) | 0.0625 (≈ 0.0985 µM) | 0.0625 (≈ 0.0985 µM) | ≤ 0.125 | ≤ 0.125 | ≤ 0.125 | ≤ 0.0312 | ≤ 0.125 | ≤ 0.125 |
| CC(C)(ON=C(C(=O)NC1C(=O)N2C(C(=O)O)=C(COC(=O)c3ccc(NC(=O)CCN)cc3)C[S+]([O-])C12)c1csc(N)n1)C(=O)O (stereo not shown) [42 546] | 0.25 (≈ 0.361 µM) | 0.25 (≈ 0.361 µM) | 0.125 (≈ 0.181 µM) |  | ≤ 0.0312 | 1 (≈ 1.45 µM) |  | 0.25 (≈ 0.361 µM) | 4 (≈ 5.78 µM) | 0.25 (≈ 0.361 µM) | 0.25 (≈ 0.361 µM) | 0.0625 (≈ 0.0904 µM) | ≤ 0.0312 |  |  | ≤ 0.125 | ≤ 0.0312 |  |  |
| Cc1c(CN)cccc1C(=O)OCC1=C(C(=O)O)N2C(=O)C(NC(=O)/C(=N\OC(C)(C)C(=O)O)c3csc(N)n3)C2[S+]([O-])C1 (stereo not shown) [42 456] | 0.25 (≈ 0.385 µM) |  | 0.125 (≈ 0.193 µM) |  | 0.0625 (≈ 0.0964 µM) | 0.5 (≈ 0.771 µM) |  |  | 4 (≈ 6.17 µM) |  | 0.25 (≈ 0.385 µM) | 0.0625 (≈ 0.0964 µM) | ≤ 0.0312 |  | ≤ 0.125 | ≤ 0.125 | ≤ 0.0312 | ≤ 0.125 | ≤ 0.125 |
